The text below walks through data of article PMC13168289, “Potent acridone antimalarial against all three life stages of Plasmodium” (Nature Communications, 2026).

Like-named read-outs stand apart in the source and are kept apart here.

Assay [1] relates to P. falciparum mutant T111 lines. Description: drug susceptibility of T111-selected cyt b mutant lines. Format: cell-based, Plasmodium falciparum. The method, then: DNA extractions were performed on clonal parasites using the QIAamp DNA extraction kit (QIAGEN Inc, Valencia, CA) or ZYMO Quick gDNA Miniprep kit (Zymo Research Corp, Irvine, CA). For sequencing of the open reading frame of pfcytb, PCR was performed with genomic DNA using forward and reverse flanking primers for cyt b primer 1: 5’-[…]-3’ and primer 2: 5’-[…]-3’. PCR products were subjected to enzymatic cleanup with ExoSAP-IT (Thermo Fisher Scientific) and sent for Sanger sequencing (Eurofins Genomics, Louisville, KY) with PCR primer 2 paired with an internal forward primer: 5’-[…]-3’ and an internal reverse primer: 5’-[…]-3’. Sequences were assembled using 4Peaks software (Nucleobytes, Amsterdam, Netherlands) and aligned with Clustal Omega (EMBL-EBI). For sequencing of the open reading frame of pfdhodh, PCR was performed with genomic DNA using forward primer: 5’-[…]-3’ and reverse primer: 5’-[…]-3’. PCR products were prepared for Sanger sequencing and analyzed as described above, except using two forward primers: 5’-[…]-3’ and 5’-[…]-3’ and with two reverse primers: 5’-[…]-3’ and 5’-[…]-3’.
(§1) Drug susceptibility assays against P. falciparum strains were performed using a SYBR Green based assay. D6 and Dd2 were obtained from MR4. Tm90-C2B was obtained from WRAIR. Dd2-D1^I22L and ELQ-300 were obtained from VAPORHCS. D10yDHODH was obtained as a courtesy from Dr. Akhil Vaidya at Drexel University. P. yoelii ATV^r and ELQ-300^r clones were obtained from VAPORHCS.

Assay [2] has as its system P. falciparum K13 mutant parasites SP045 and SP060. Description: Growth, Resistance, and Recovery Assay (GRRA), ring-stage survival dose-response. The conditions noted are these: Plasmodium falciparum. Format: cell-based, Plasmodium falciparum. On the procedure:
These isolates carry the validated R561H Kelch 13 propeller domain mutation associated with delayed parasite clearance in East Africa[24],[25]. Using the 6-hour GRRA[23], all strains were thawed, frozen, and cultured under standard conditions at 5% hematocrit. Samples parasitemia was measured by flow cytometry. Parasite cultures that were predominantly segmented schizonts were synchronized using a single Percoll layer method. Cultures that met quality control requirements of ≥70% early ring stage and ≥1% parasitemia were adjusted to 0.25% parasitemia at 2% hematocrit. […] The GRRA50 implements 11 RSA experiments to generate a dose-response curve for each parasite line per drug. Master mixes of samples were aliquoted into 2 technical replicates of 275 µL each in 96 well plates (2 treated each condition, 2 untreated). At 6 h post-exposure, 200 µL of media was removed from the wells and replaced with 200 µL of incomplete media and spun for 3 min at 800 g to rinse. The rinse was repeated a total of 3 times, after which 200 µL complete media was added back to the wells. At 120 h post-treatment, thin microscopy smears were made using 2 µL of culture for each sample and 20 µL of culture was transferred to PCR strips and stored at −80 °C until qPCR quantification. A standard curve of known parasitemia was generated using the NF54 parasite line for each qPCR quantification for conversion from Cycle threshold (Ct) to parasitemia and comparison between qPCR experiments. Replicate viability was calculated according to the GRRA method. Each individual reaction mixture and cycling conditions were set to previously used methods. Ct was calculated using AB1 SDA 2.4.1. software. […] We find that commonly reported thresholds (cutoffs) for resistance (e.g., 1% survival in traditional RSA) may not be broadly applicable, especially with lower thresholds subject to potential artifacts due to markedly low survival rates of ART-sensitive and low-level ART-resistant parasites. Regular RSA relies on a single drug concentration, 700 nM. To gain a more fine-scale quantification to compare drug susceptibilities with relevance to therapeutic success and failure, we developed the GRRA50 to generate full dose-response curves for precise quantitative comparisons.

Assay [3] concerns P. falciparum D6, Dd2, Tm90-C2B, Dd2-D1^I22L, D10yDHODH. Put plainly: microbe, parasite or virus in culture. Format: cell-based, Plasmodium falciparum. The following applies: read-out: in vitro IC50 vs P. falciparum. The method, then: as §1
For assay [4], the system named is P. yoelii wild type, ATV^r and ELQ-300^r clones. Description: 4-day suppression model with ATV- and ELQ-300-resistant clones. It is filed as in vivo, P. yoelii in CF1 mice. The conditions noted are these: (95% CI).
Text: Animals were housed at the VAPORHCS in Thoren Maxi-Miser microisolator cages (78 sq. in. floor space) with a maximum density of five females or four males per cage. Cages were maintained on a 12-h light/dark cycle and provided with autoclaved nesting materials (nestlets) for environmental enrichment. All mice had ad libitum access to food and water. Four- to five-week-old female and male outbred CF1 mice (Charles River Laboratories, Raleigh, NC, USA) were randomly assigned to treatment and control groups using a simple randomization procedure (e.g., computer-generated random numbers) to ensure balanced distribution of baseline body weights and starting parasitemia levels across all cohorts. Groups of four mice (n = 4, mean body weight of each group was ~30 g) were infected intravenously with 3.5 × 10^4 P. yoelii (Kenya strain, MRA-428) from a donor animal. Drug administration commenced the day after the animals were inoculated (Day 1). The test drug or the drug combination was dissolved in PEG-400 and administered by oral gavage once daily for 4 successive days in the 4-day suppression model, but only once on Day 1 in the single-dose cure model. Blood was collected via the tail vein with the aid of a syringe needle on Day 5 and then at weekly intervals through Day 28. Blood films were Giemsa-stained and examined microscopically to determine the level of parasitemia. All mice were observed daily to assess clinical signs. Animals with observable parasitemia following the experiments were euthanized; animals cleared of parasitemia from their bloodstream were observed daily with assessment of parasitemia performed weekly until Day 28, at which point, the animal(s) were scored as cured of the infection and then humanely euthanized. All treated mice with a negative smear on Day 28 were considered cured (100% protection).
as §1

Setting [5] is: Plasmodium falciparum, DD2, Supplementary Table 4, Dd2.
[6] abbreviates: Plasmodium falciparum, DD2, Supplementary Table 4, Dd2-A131S-140I-259L-264L.
Where [7] appears, read: Plasmodium falciparum, DD2, Supplementary Table 4, Dd2-B131S-140I-259L-264L.
[8] abbreviates: Plasmodium falciparum, DD2, Supplementary Table 4, Dd2-D0119L-131S-259L (pfdhodh mutation).
Setting [9] is: Plasmodium falciparum, DD2, Supplementary Table 4, Dd2-D1131S-140I-259L (pfdhodh mutation).
Setting [10] is: Dd2-A^131S-140I-259L-264L, read-out: inhibition IC50 vs P. falciparum.
[11] abbreviates: Dd2-A^131S-140I-259L, read-out: inhibition IC50 vs P. falciparum.
[12] abbreviates: Dd2-B^87V-131S-140I-259L, read-out: inhibition IC50 vs P. falciparum.
Setting [13] is: Dd2-B^131S-140I-259L-264L, read-out: inhibition IC50 vs P. falciparum.
The mark [14] stands for this setting: Dd2-C0^119L-131S-259L (pfdhodh mutation), read-out: inhibition IC50 vs P. falciparum.
Setting [15] is: Dd2-C1^131S-140I-259L (pfdhodh mutation), read-out: inhibition IC50 vs P. falciparum.
Setting [16] is: Dd2, read-out: inhibition IC50 vs P. falciparum.
[17] abbreviates: Dd2^131S-259L, read-out: inhibition IC50 vs P. falciparum.
Where [18] appears, read: Dd2^131S, read-out: inhibition IC50 vs P. falciparum.
The mark [19] stands for this setting: Dd2^259L, read-out: inhibition IC50 vs P. falciparum.

Take `Cc1cc(Nc2ccc(S(F)(F)(F)(F)F)cc2)n2nc(C(C)(F)F)nc2n1` [DSM265]: the IC50 amounted to 3.2 ± 0.3 nM in assay [1] (Plasmodium falciparum, DD2, read-out: inhibition IC50 vs P. falciparum, Dd2); 3.2 ± 0.52 nM in assay [1] (Plasmodium falciparum, DD2, read-out: inhibition IC50 vs P. falciparum, Dd2-A^131S-140I-259L); 1.2 ± 0.075 nM in assay [1] (Plasmodium falciparum, DD2, read-out: inhibition IC50 vs P. falciparum, Dd2-A^131S-140I-259L-264L); 3.5 ± 0.37 nM in assay [1] (Plasmodium falciparum, DD2, read-out: inhibition IC50 vs P. falciparum, Dd2-B^87V-131S-140I-259L); 2.8 ± 0.3 nM in assay [1] (Plasmodium falciparum, DD2, read-out: inhibition IC50 vs P. falciparum, Dd2-B^131S-140I-259L-264L); 795 ± 235 nM in assay [1] (Plasmodium falciparum, DD2, read-out: inhibition IC50 vs P. falciparum, Dd2-C0^119L-131S-259L (pfdhodh mutation)). Besides, the IC50 in assay [1] (Plasmodium falciparum, DD2, read-out: inhibition IC50 vs P. falciparum, Dd2-C1^131S-140I-259L (pfdhodh mutation)) was determined as 563 ± 203 nM; in assay [1] (Plasmodium falciparum, DD2, read-out: inhibition IC50 vs P. falciparum, Dd2^131S), 1.9 ± 0.22 nM; in assay [1] (Plasmodium falciparum, DD2, read-out: inhibition IC50 vs P. falciparum, Dd2^131S-259L) it was 2.8 ± 1.2 nM; in assay [1] (Plasmodium falciparum, DD2, read-out: inhibition IC50 vs P. falciparum, Dd2^259L), 3.3 ± 1 nM.
Turning to `C[C@H]1[C@@H](O)O[C@@H]2O[C@@]3(C)CC[C@H]4[C@H](C)CC[C@@H]1[C@@]24OO3` [DHA, dihydroartemisinin], the IC50 amounted to 7.7 nM in assay [2] (read-out: GRRA50, SP045 (K13 V555A, ART-S)); 25 nM in assay [2] (read-out: GRRA50, SP060 (K13 R561H, ART-R)); 1.7 ± 0.14 nM in assay [1] (setting [5]); 2.3 ± 0.25 nM in assay [1] (setting [6]); 2.3 ± 0.18 nM in assay [1] (setting [7]); 2.2 ± 0.18 nM in assay [1] (setting [8]). This molecule registered an IC50 in assay [1] (setting [9]) of 2.4 ± 0.2 nM.
Regarding ELQ-400, the IC50 in assay [1] (setting [10]) came to 80 ± 15 nM; in assay [1] (setting [11]) it was 133 ± 17 nM; in assay [1] (setting [12]), 177 ± 3.1 nM; in assay [1] (setting [13]) it was 126 ± 32 nM; in assay [1] (setting [14]) it was 255 ± 62 nM; in assay [1] (setting [15]), 501 ± 101 nM. For the same molecule, the IC50 came out at 4 ± 0.45 nM in assay [1] (setting [16]), 28 ± 13 nM in assay [1] (setting [17]), 4.2 ± 0.41 nM in assay [1] (setting [18]) and 24 ± 6.7 nM in assay [1] (setting [19]).
Turning to `Clc1ccc2c(N3CCN(CCCN4CCN(c5ccnc6cc(Cl)ccc56)CC4)CC3)ccnc2c1` [PIP, piperaquine], the IC50 was found to be 7.4 ± 0.57 nM in assay [1] (setting [5]); 9.9 ± 0.65 nM in assay [1] (setting [6]); 12 ± 2.3 nM in assay [1] (setting [7]); 11 ± 1.2 nM in assay [1] (setting [8]); 9.1 ± 1.7 nM in assay [1] (setting [9]).
With `CCCCN(CCCC)CC(O)c1cc(Cl)cc2c1-c1ccc(Cl)cc1/C2=C/c1ccc(Cl)cc1` (centres unmarked) [LUM, lumefantrine], the IC50 in assay [1] (setting [5]) came out at 1.2 ± 0.098 nM; in assay [1] (setting [6]), 1.7 ± 0.086 nM; in assay [1] (setting [7]), 1.7 ± 0.36 nM; in assay [1] (setting [8]), 1.5 ± 0.11 nM; in assay [1] (setting [9]) it was 2.4 ± 0.11 nM.
Take `COc1cc2[nH]c(C)c(-c3ccc(Oc4ccc(OC(F)(F)F)cc4)cc3)c(=O)c2cc1Cl` [ELQ-300]: the IC50 in assay [1] (setting [10]) came to 35 ± 3.2 nM; in assay [1] (setting [11]), 52 ± 5.5 nM; in assay [1] (setting [12]), 67 ± 4.6 nM; in assay [1] (setting [13]), 25 ± 2.7 nM; in assay [1] (setting [14]), 221 ± 50 nM; in assay [1] (setting [15]), 225 ± 73 nM. Moreover, the IC50 is 38 ± 5 nM in assay [1] (setting [16]); 26 ± 5.2 nM in assay [1] (setting [17]); 20 ± 5.8 nM in assay [1] (setting [18]); 23 ± 4.3 nM in assay [1] (setting [19]); 3.5 ± 0.23 nM in assay [3] (D6); greater than 2500 nM in assay [3] (D10yDHODH). In addition, the IC50 in assay [3] (Dd2-D1^I22L (ELQ-300-resistant)) was 245 ± 27 nM; in assay [3] (Dd2), 3.1 ± 0.15 nM; in assay [3] (Tm90-C2B (cyt b Y268S, ATV-resistant)) it was 1.3 ± 0.084 nM. Moreover, the ED50 in assay [4] (P. yoelii ATVrY268S) is listed as 0.040 (0.036–0.044) mg/kg/day; in assay [4] (P. yoelii ELQ-300rI22L), 1.27 (0.97–1.67) mg/kg/day; in assay [4] (P. yoelii wild type) it was 0.031 (0.029–0.033) mg/kg/day.
Consider `CO/C(=C/C(N)=O)[C@H](C)[C@H](/C=C/c1csc(-c2csc([C@@H](C)/C=C/C=C/C(C)C)n2)n1)OC` [MYX, myxothiazol], for which the IC50 in assay [1] (setting [10]) was 16 ± 4.1 nM; in assay [1] (setting [11]), 192 ± 11 nM; in assay [1] (setting [12]) it was 373 ± 11 nM; in assay [1] (setting [13]) it was 34 ± 3.3 nM; in assay [1] (setting [14]) it was 1540 ± 110 nM; in assay [1] (setting [15]), 723 ± 141 nM. Besides, the IC50 was 24 ± 3.4 nM in assay [1] (setting [16]), 975 ± 139 nM in assay [1] (setting [17]), 383 ± 38 nM in assay [1] (setting [18]) and 64 ± 13 nM in assay [1] (setting [19]).
